Assay results: patent US12250948B2, “Methods for the control of arthropods using near-ideal gas phase hydrogen peroxide” (Synexis LLC, priority 2013, dated 2025)
Like-named read-outs stand apart in the source and are kept apart here.

Columns and labels:
Yellow Jackets and Nest = conditions: PHPG 0.3 ppm
Stink Bugs = conditions: PHPG 0.3 ppm
Brown Dog Tick = assay: Laboratory chamber test of PHPG, knockdown and mortality; assay type: in vivo; conditions: PHPG 0.6 ppm
Procedure: (§1) The effects of Purified Hydrogen Peroxide Gas (PHPG) on selected arthropod species is performed to determine the efficacy on controlling an arthropod using the indirect dispersion of PHPG in a space. In these experiments, the knockdown and mortality rates in mosquitoes, bed bugs, termites, ants, moths, house flies, and spiders is assessed.
(§2) Black wood ants, house flies (adult and pupae), large saturniid moths, termites (soldier and living), and cellar spiders are obtained from Carolina Supplies and shipped overnight. All organisms are fed prior to shipping from Carolina Supplies. Bed bugs and mosquitoes are sourced locally due to government shipping restrictions. The test samples are stored in a cabinet at ambient temperature and humidity until use in the study. The samples are labeled and color-coded for easy identification. In certain experiments, specimens of wild caught arthropods are used in the controlled experiments, including for example Brazilian cockroaches.
(§3) All testing is conducted in a sealed, Static Dissipative PVC chamber, Terra Universal (Fullerton, CA) Model 3305-10F: 59 inches W×24 inches D×25 inches H. With additional airlock Terra Universal Model 1680-81B 11.5 inches W×10 inches D×10.5 inches 1-1. Arthropods are placed inside transfer containers (pint size paper containers). The top and bottom diameters of these containers are 3.75 and 2.87 inches respectively with a height of 3.5 inches. All arthropods are released once the airlock is sealed. Arthropods are allowed to recover following PHPG exposure and observed in 8 oz glass Pyrex@(Tewksbury, MA) containers with sealed glass lids.
Three replicates of ten of each arthropod are subjected to PHPG. […] If at 24 hours mortality is less 90%, additional readings are taken following 48 hours of PHPG exposure. […] Time frames are recorded for each replicate. […]
If all ten arthropods are recorded as knocked down or deceased during any observation before 15 minutes have elapsed, subsequent observations are not made. […] All dead arthropods are confirmed by probing or agitation to make sure that they are unable to move (any that show movement visible to the naked eye are recorded as moribund). Arthropods that can crawl or right themselves when placed on their backs are recorded as being alive.
(§4) After the knockdown counts are complete, the arthropods are maintained in the laboratory at ambient temperature and humidity conditions with a normal 8:16 light:dark cycle for 24 hours. Additional mortality readings are taken at 48 hours if less than 90% mortality is recorded at 24 hours. A 48 hour reading depends upon control mortality remaining less than 10%. Temperature and humidity are recorded in the treatment area, and in the laboratory where the arthropods are subsequently held for the duration of the test.

Mosquitoes = conditions: PHPG 0.2 ppm
Fruit Flies = conditions: PHPG 0.3 ppm, exposure 72 hours
Procedure: as §1, §2, §3
(§5) Three replicates of ten of each arthropod are subjected to PHPG. An additional three replicates are subjected to a non PHPG producing device and serve as untreated controls. The arthropods are observed for knockdown at 0.5, 1, 2, 3, 4, 5, and 15 minutes. Mortality counts are taken after 24 hours of PHPG exposure. If at 24 hours mortality is less 90%, additional readings are taken following 48 hours of PHPG exposure. The test samples are exposed to the test environment containing PHPG until a 90% knockdown is achieved. The test samples are provided PHPG emitted from a PHPG producing device in the center of the test chamber. Time frames are recorded for each replicate. Just prior to treatment the arthropods are transferred into the transfer containers. Forty eight hours after treatment, they are removed from the treatment chamber and transferred to recovery containers and covered with screened lids for observation.
(§6) Knockdown occurs when an arthropod cannot right itself when placed on its back but is still able to move at least one body part. The arthropods are then transferred from the treatment chamber to recovery containers. Another knockdown/mortality observation is made 15 minutes later.
(§7) If all ten arthropods are recorded as knocked down or deceased during any observation before 15 minutes have elapsed, subsequent observations are not made. Mortality counts are made at 24 hours, and 48 hours or sooner (if applicable). All dead arthropods are confirmed by probing or agitation to make sure that they are unable to move (any that show movement visible to the naked eye are recorded as moribund). Arthropods that can crawl or right themselves when placed on their backs are recorded as being alive.
as §4

Wolf Spiders = conditions: PHPG 1.0 ppm
Procedure: as §1, §2, §3, §5, §6, §7, §4

Deer Ticks = conditions: PHPG 0.6 ppm
Procedure: as §1, §2, §3, §5, §6, §7, §4

Bedbugs = conditions: PHPG 0.6 ppm
Procedure: as §1, §2, §3, §5, §6, §7, §4

Cellar Spiders = conditions: PHPG 1.0 ppm
Procedure: as §1, §2, §3, §5, §6, §7, §4

Tarantula = test system: Tarantula
Procedure: as §1, §2, §3, §5, §6, §7, §4

Carpenter Ants = conditions: PHPG 1.0 ppm
Procedure: as §1, §2, §3, §5, §6, §7, §4

Termites = test system: Termites
Procedure: as §1, §2, §3, §5, §6, §7, §4

House Fly Pupae = conditions: PHPG 0.5 ppm
Procedure: as §1, §2, §3, §5, §6, §7, §4

Cockroaches = test system: Cockroaches
Procedure: as §1, §2, §3, §5, §6, §7, §4

Crickets = conditions: PHPG 0.4 ppm
House Flies = conditions: PHPG 0.2 ppm
[1] = test system: arthropods including crickets, ants, spiders, and house flies; assay: Real world test of PHPG in 1400 sq ft Pool House; conditions: after 27 hours
Text: All PHPG concentration readings take place with Draeger products. A Pac III, Polytron 7000 or Draeger Tubes are utilized in all tests, generally according to manufacturer's instructions. […] Most commonly, Draeger Tubes are used after clipping on both ends and placement in a ACCURO™ Pump. Per manufacturer instructions, the tubes are pumped 100 times and the level of PHPG determined by observing the color change in the crystals.
Two PHPG generating devices were placed in the space for an initial cleansing and to establish levels.

## OO [PHPG, Purified Hydrogen Peroxide Gas]
Yellow Jackets and Nest; 1 day, nest was hatching
  Observations: unhatched yellow jackets in the nest: jackets in the nest died.
Yellow Jackets and Nest; Yellow Jackets and Nest, exposure 1 day
  Percent Killed: 100%
Yellow Jackets and Nest; Yellow Jackets
  Attempt to Flee?: Yes
Stink Bugs
  Attempt to Flee?: Yes
Stink Bugs; exposure 24 hours
  Percent Killed: 100%
Brown Dog Tick
  Attempt to Flee?: Yes
Brown Dog Tick; exposure 3 hours
  Percent Killed: 70%
Brown Dog Tick; exposure 60 hours
  Percent Killed: 100%
Brown Dog Tick; until they succumbed
  Observations: All ticks searched for an exit
Mosquitoes
  Attempt to Flee?: Yes
Mosquitoes; exposure 2 hours
  Percent Killed: 100%
Fruit Flies
  Percent Killed: 100%
Wolf Spiders
  Attempt to Flee?: Yes
  Observations: Very susceptible; and
Wolf Spiders; exposure 1 hour
  Percent Killed: 100%
Deer Ticks
  Attempt to Flee?: Yes
Deer Ticks; exposure 3 hours
  Percent Killed: 70%
Deer Ticks; exposure 60 hours
  Percent Killed: 100%
Deer Ticks; until they succumbed
  Observations: All ticks searched for an exit
Bedbugs; Bedbug nymphs hatched from immature eggs
  Observations: nymphs: Nymphs died in seconds.
Bedbugs; Bedbugs
  Observations: all bedbugs reacted within: fifteen seconds.
  Observations: final outcome: All died over time.
Bedbugs; Bedbugs, exposure 3 hours
  Percent Killed: 50%
Bedbugs; Bedbugs, exposure 60 hours
  Percent Killed: 100%
Bedbugs; Bedbugs, cell continues 'Went Dormant'
  Attempt to Flee?: No,
Cellar Spiders
  Attempt to Flee?: Yes
  Observations: smallest spiders died within: one hour. Larger spiders
Cellar Spiders; exposure 24 Hours
  Percent Killed: 33%
Tarantula; Tarantula, PHPG 0.6 ppm
  Attempt to Flee?: No
Tarantula; Tarantula, PHPG 0.6 ppm, exposure 24 hours
  Percent Killed: 0%
Tarantula; Tarantula, PHPG 0.6 ppm, did not react to the gas
  Observations: Appeared resistant. Did not
Tarantula; tarantula spiders, PHPG levels up to 0.6 ppm for 24 hours
  Resistance to PHPG: resistant
Carpenter Ants
  Attempt to Flee?: Yes
  Observations: order of death: exit. Smallest ants died first.
Carpenter Ants; exposure 24 Hours
  Percent Killed: 15%
Carpenter Ants; when unable to flee
  Observations: ants collected in areas where fresh air was seeping into the chamber and remained inactive: When unable 50% collected
Termites; PHPG 0.1 ppm, cell continues 'Then went dormant'
  Attempt to Flee?: Yes,
Termites; PHPG 0.1 ppm, exposure 24 hours
  Percent Killed: 100%
Termites; very low exposure (PHPG 0.1 ppm), sought shelter
  Observations: went dormant. Larger
House Fly Pupae; 100 pupae expected to hatch within 3 days, within one week
  Observations: hatching: within 3 days. Did not hatch
House Fly Pupae; House Fly Pupae, exposure 7 days
  Percent Killed: 100%
Cockroaches; Cockroaches, PHPG 0.6 ppm
  Attempt to Flee?: No
Cockroaches; Cockroaches, PHPG 0.6 ppm, exposure 24 Hours
  Percent Killed: 0%
Cockroaches; Cockroaches, low level of PHPG (0.6 ppm), did not react to the gas
  Observations: Appeared resistant at low
Cockroaches; adult cockroaches, PHPG levels up to 0.6 ppm for 24 hours
  Resistance to PHPG: resistant
Crickets; exposure 21 hours, garden house
  Percent Killed: 100%
Crickets; tried to exit through HVAC vents
  Attempt to Flee?: Yes
House Flies
  Attempt to Flee?: Yes
  Observations: final outcome: All died within day
  Observations: first deaths within: one hour
House Flies; exposure 24 hours
  Percent Killed: 100%
[1]; PHPG 0.4 ppm
  Live insects observed: No live insects were observed
[1]; two PHPG generating devices, PHPG 0.4 ppm at 27 hours
  Number of arthropods confirmed dead: 109
Lice and nits; Lice and nits, PHPG 0.2 ppm, exposure 2 days
  Percent Killed: 100%
Lice and nits; Lice and nits, PHPG 0.2 ppm, within two days
  Observations: bedding and other exposed items: items fully treated within two
Lice and nits; child subject, from initiation of PHPG treatment
  Elimination of all signs of lice: lice free within two days
